In brackets after ≈: the same amount, converted by molar mass. Counter-ions that a name gives are not always drawn. Like-named read-outs stand apart in the source and are kept apart here.
Columns and labels:
[1] = target: T1, P-gp drug efflux activity in HeL023 cells (Homo sapiens, UniProt P08183); test: Rhodamine 123 efflux assay, HeL023 cells; type: cell-based; settings: for inhibition of P-gp activity (in words): Rh123 efflux, concentrations of Table 11 (MRE3008F20 10 μM); for % of Rh123 negative cells: cells expressing P-gp activity
T1 construct: nearly all (100±1%) the cells expressing high level of functional P-gp; endogenous in cells; host or cells: HeL023 human erythroleukemia cells
Experimental: 5×10^5 cells from each subline were loaded with 50 ng/ml of rhodamine 123 for 30 minutes at 37° C. in medium. The cells were washed and resuspended in dye-staining agent free medium for 3 hours at 37° C. to allow rhodamine 123 efflux. The cells were then washed twice and the fluorescence of intracellular rhodamine 123 were analysed with Flow cytometer (residual fluorescence FRES). The fluorescence was compared with loaded cells maintained at 4° C. to prevent drug export (maximal fluorescence FMAX). […] Cells from each subline that were not being exposed to rhodamine 123 were used as negative controls.
Rhodamine 123 (Rh123) retention, a P-gp functional assay, was studied in all cell lines. This assay was performed by incubating cells with Rh123 and determining Rh123 accumulation by measuring its fluorescence. The maximum load of Rh123 (FMAX) was quantified at the end of treatment harvesting the cells and storing them at 4° C. to prevent any active Rh123 efflux . The P-gp drug efflux was allowed incubating Rh123-loaded cells in fresh new medium Rh123-free for 3 hours at 37° C. After this incubation, residual fluorescence (FRES) was measured and compared to FMAX.

A375 cells = test: Flow cytometry (PI) G2/M accumulation and sub-G1 apoptosis, A375; type: cell-based, human; settings: Homo sapiens, A-375, read-out: SEC50 (dose inducing 50% of the enhancing activity to vindesine)
Experimental: A375 and NCTC2544 adherent cells were trypsinized, mixed with floating cells, washed with PBS and permeabilised in 70% (vol/vol) ethanol/PBS solution at 4° C. for at least 24 hours. Jurkat, HeL023 and PBMC cells were centrifuged for 10 minutes at 1000×g. The cell pellet was then resuspended and permeabilised in 70% (vol/vol) ethanol/PBS solution at 4° C. for at least 24 hours. The cells were washed with PBS and the DNA was stained with a PBS solution, containing 20 μg/ml of propidium iodide and 100 μg/ml of RNAse, at room temperature for 30 minutes. Cells were analysed by FACScan (Becton-Dickinson) and the content of DNA was evaluated by the Cell-LISYS program (Becton-Dickinson). Cell distribution among cell cycle phases and apoptotic cells was evaluated as previously described (Secchiero et al., 2001). Briefly, the cell cycle distribution is shown as the percentage of cells containing 2n (G1 phase), 4n (G2 and M phases), 4n>x>2n. DNA amount (S phase) judged by propidium iodide staining. The apoptotic population is the percentage of cells with DNA content lower than 2n.
Cell proliferation and apoptosis are quantified by flow cytometer analysis after propidium-iodide (PI) DNA staining.

[2] = target: T2, human A3 adenosine receptor (Homo sapiens, UniProt P0DMS8); test: biochemical
T2 sequence (P0DMS8 1-318): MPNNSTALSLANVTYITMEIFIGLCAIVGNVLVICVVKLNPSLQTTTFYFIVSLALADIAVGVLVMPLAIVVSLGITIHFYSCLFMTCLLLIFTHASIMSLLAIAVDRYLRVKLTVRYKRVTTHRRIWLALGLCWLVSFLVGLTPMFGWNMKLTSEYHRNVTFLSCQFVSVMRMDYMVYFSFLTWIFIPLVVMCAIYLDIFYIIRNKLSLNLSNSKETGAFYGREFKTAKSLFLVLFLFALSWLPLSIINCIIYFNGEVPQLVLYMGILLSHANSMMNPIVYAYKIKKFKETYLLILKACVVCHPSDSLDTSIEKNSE

A375 melanoma cells = test: Colony formation assay of A375 cells; type: cell-based, human; settings: 7 days
Experimental: FIG. 2 illustrates colony formation assay of A375 cells. Cells were treated with different drugs and colonies were counted after 7 days. The values represent the mean ±SEM of four independent experiments. D=DMSO (control); T=paclitaxel, 0.75 ng/ml; M=MRE 3008F20, 10 μM; C=CI-IB-MECA, 10 μM; TM=paclitaxel plus MRE 3008F20; TC=paclitaxel plus CI-IB-MECA treated cells. *P<0.01 TM versus T. Analysis was by ANOVA followed by Dunnett's test.;
Control plates received the same volume of DMSO alone. After 7 days of growth at 37° C. in humidified atmosphere containing 5% CO2, the cells were fixed with absolute methanol for 5′ and stained with 1/10 Giemsa/phosphate-buffered saline (PBS) staining solution for 10 minutes. Staining solution was removed and colonies of greater than 30 cells were scored as survivors. For each treatment, six individual wells were scored.
Colony formation assay experiments were performed on A375 melanoma cells treated with increasing concentration of paclitaxel (0.25-75 ng/ml). A3 stimulation is achieved with the selective agonist CI-IB-MECA while A3 blockade is obtained with the selective antagonist MRE 3008F20. […] (FIG. 2)

[3] = test system: human colon carcinoma HT29 cell line; test: MTT growth inhibitory assay, HT29; type: cell-based; settings: for IC50: HT-29; for fold HT29 more refractory than A375: ratio of IC50 HT29 vs A375
[4] = test system: human pancreatic cancer Panc-1; test: MTT growth inhibitory assay, Panc-1; type: cell-based
[5] = test system: human lung carcinoma SKMES; test: MTT growth inhibitory assay, SKMES; type: cell-based
[6] = test system: human melanoma A375 cell line; test: MTT growth inhibitory assay, A375; type: cell-based
[7] = 100 mg/m^2; cited from earlier work
[8] = Human Colon Carcinoma HT29, read-out: IC50 growth inhibition, agent used separately
[9] = Human Pancreatic Cancer Panc-1, read-out: IC50 growth inhibition, agent used separately
[10] = Human Lung Carcinoma SKMES, read-out: IC50 growth inhibition, agent used separately
[11] = Homo sapiens, A-375, Human Melanoma A375, read-out: IC50 growth inhibition, agent used separately
[12] = Homo sapiens, HT29 cell line, read-out: IC50 value
[13] = Homo sapiens, A-375, A375 cell line, read-out: IC50 value

T1 sequence (P08183 whole entry): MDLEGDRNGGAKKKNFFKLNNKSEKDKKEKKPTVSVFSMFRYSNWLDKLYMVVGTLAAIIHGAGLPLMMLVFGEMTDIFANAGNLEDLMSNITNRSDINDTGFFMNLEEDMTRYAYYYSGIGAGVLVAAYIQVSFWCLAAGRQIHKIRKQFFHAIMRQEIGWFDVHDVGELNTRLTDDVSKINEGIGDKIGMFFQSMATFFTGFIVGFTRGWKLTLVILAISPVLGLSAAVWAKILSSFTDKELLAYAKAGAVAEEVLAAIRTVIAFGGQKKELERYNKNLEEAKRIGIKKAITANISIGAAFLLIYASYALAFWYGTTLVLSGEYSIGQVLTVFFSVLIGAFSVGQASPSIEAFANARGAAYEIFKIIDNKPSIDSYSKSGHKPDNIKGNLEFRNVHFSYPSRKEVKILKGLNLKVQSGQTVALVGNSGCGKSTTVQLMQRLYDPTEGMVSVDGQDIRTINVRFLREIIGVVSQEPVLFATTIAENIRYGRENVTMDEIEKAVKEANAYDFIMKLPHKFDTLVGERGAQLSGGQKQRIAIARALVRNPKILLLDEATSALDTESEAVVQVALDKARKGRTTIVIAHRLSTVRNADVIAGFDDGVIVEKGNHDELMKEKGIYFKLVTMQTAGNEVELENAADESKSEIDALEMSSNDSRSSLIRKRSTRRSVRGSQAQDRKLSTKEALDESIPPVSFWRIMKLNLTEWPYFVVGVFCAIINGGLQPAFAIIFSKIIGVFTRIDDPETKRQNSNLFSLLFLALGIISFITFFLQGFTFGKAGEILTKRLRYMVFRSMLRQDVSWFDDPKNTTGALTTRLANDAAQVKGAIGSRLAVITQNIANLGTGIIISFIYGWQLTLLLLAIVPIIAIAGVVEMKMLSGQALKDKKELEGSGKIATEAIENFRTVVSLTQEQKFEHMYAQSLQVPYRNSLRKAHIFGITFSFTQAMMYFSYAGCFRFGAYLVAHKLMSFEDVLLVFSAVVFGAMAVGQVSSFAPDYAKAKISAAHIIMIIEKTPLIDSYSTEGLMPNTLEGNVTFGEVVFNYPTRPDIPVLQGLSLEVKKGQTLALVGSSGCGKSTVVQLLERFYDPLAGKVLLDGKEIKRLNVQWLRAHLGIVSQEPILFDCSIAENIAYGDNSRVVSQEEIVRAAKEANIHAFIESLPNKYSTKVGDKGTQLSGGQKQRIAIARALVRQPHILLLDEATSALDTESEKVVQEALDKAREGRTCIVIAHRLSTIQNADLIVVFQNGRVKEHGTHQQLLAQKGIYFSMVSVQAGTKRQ

## Nc1nc2ccc(Cl)cc2c2nc(-c3ccco3)nn12 [CGS 15943, 5-amino-9-chloro-2-(furyl) 1,2,4-triazolo[1,5-c]quinazoline, reference compound]
[1]
  inhibition of P-gp activity (in words): much lower effect on P-gp activity
A375 cells
  EC50: 12600 ± 1410 nM
[2]
  Ki: 118 ± 12 nM

## CNC(=O)[C@H]1O[C@@H](n2cnc3c(NCc4cccc(I)c4)nc(Cl)nc32)[C@H](O)[C@@H]1O [CI-IB-MECA]
A375 melanoma cells; 10 μM alone
  colony formation, % of DMSO control: 130%
A375 melanoma cells; 10 μM plus paclitaxel 0.75 ng/ml
  colony formation, % of control, combined with paclitaxel: 85%

## CN(C)c1ccc(NC(=O)Nc2nc3nn(C)cc3c3nc(-c4ccco4)nn23)cc1 [IL-11, N-1-(4-dimethylamino-phenyl)-N′-5-[8-methyl-2-(2-furyl)-pyrazolo[4,3-e]1,2,4-triazolo[1,5-c]pyrimidine]-urea]
[3]; HT29, A3 antagonist 0.5 μg/ml
  Enhancement Factor for docetaxel: 6.4
  Enhancement Factor for doxorubicin: 1.2
  Enhancement Factor for irinotecan HCl: 1.1
  Enhancement Factor for paclitaxel: 2.5
[3]; [8]
  IC50: 56500 ± 8300 ng/mL (≈ 135000 nM)
[4]; [9]
  IC50: 8000 ± 5700 ng/mL (≈ 19200 nM)
[4]; Panc-1, A3 antagonist 0.5 μg/ml
  Enhancement Factor for docetaxel: 1.4
[5]; [10]
  IC50: 36300 ± 31500 ng/mL (≈ 87000 nM)
[5]; SKMES, A3 antagonist 0.5 μg/ml
  Enhancement Factor for docetaxel: 1.9
  Enhancement Factor for irinotecan HCL: 1.9
  Enhancement Factor for paclitaxel: 4.2
  Enhancement Factor for vinblastine: 1.6
[6]; A375, A3 antagonist 0.5 μg/ml
  Enhancement Factor for docetaxel: 5.3
  Enhancement Factor for paclitaxel: 3.1
[6]; A375, A3 antagonist 5 μg/ml
  Enhancement Factor for docetaxel: 6.5
[6]; A375, A3 antagonist 5 μg/ml, paclitaxel 0.0001-0.05 μg/ml
  Enhancement Factor for paclitaxel: 9.6
[6]; A375, A3 antagonist 5 μg/ml, paclitaxel 0.0002-0.1 μg/ml
  Enhancement Factor for paclitaxel: 11.5
[6]; [11]
  IC50: 49300 ± 40700 ng/mL (≈ 118000 nM)
[6]; Homo sapiens, A-375, A375, 5 μg/ml, read-out: growth inhibition in the presence of A3 antagonist alone
  inhibition at 5 µg/mL: 30 to 45%

## Cc1ccc(NC(=O)Nc2nc3nn(C)cc3c3nc(-c4ccco4)nn23)cc1 [MRE 3046F20, 5-N-(4-methylphenyl-carbamoyl)amino-8-methyl-2 (2-furyl)-pyrazolo-[4,3e]-1,2,4-triazolo[1,5-c]pyrimidine]
[1]
  inhibition of P-gp activity (in words): strong inhibitors of P-gp activity
A375 cells
  EC50: 570 ± 60 nM
[2]
  Ki: 3 ± 0.3 nM

## CCCn1cc2c(nc(NC(=O)Nc3ccccc3)n3nc(-c4ccco4)nc23)n1 [MRE 3055F20, 5-N-(4-phenylcarbamoyl)amino-8-propyl-2 (2furyl)-pyrazolo[4,3e]-1,2,4triazolo-[1,5c]pyrimidine]
[1]
  inhibition of P-gp activity (in words): strong inhibitors of P-gp activity
A375 cells
  EC50: 310 ± 30 nM
[2]
  Ki: 1.4 ± 0.2 nM

## Nc1nc(NCCc2ccc(O)cc2)nc2nc(-c3ccco3)nn12 [ZM 241385, 4-(2-[7-amino-2-(2-furyl)-[1,2,4]triazolo[2,3-a][1,3,5]triazin-5-ylamino]ethyl)phenol, reference compound]
[1]
  inhibition of P-gp activity (in words): much lower effect on P-gp activity
A375 cells
  EC50: 25000 ± 2230 nM

## CC(=O)O[C@@]12CO[C@@H]1C[C@H](O)[C@@]1(C)C(=O)[C@H](O)C3=C(C)[C@@H](OC(=O)[C@H](O)[C@@H](NC(=O)OC(C)(C)C)c4ccccc4)C[C@@](O)([C@@H](OC(=O)c4ccccc4)[C@H]21)C3(C)C [docetaxel, reference compound]
[3]; [8]
  IC50: 0.24 ± 0.05 ng/mL (≈ 0.297 nM)
[3]; Homo sapiens, HT29, docetaxel 0.00001-0.005 μg/ml, alone, read-out: IC50 of docetaxel, A3 antagonist none
  IC50: 0.018 ng/mL (≈ 0.0223 nM)
[4]; Homo sapiens, Panc-1, docetaxel 0.00001-0.005 μg/ml, alone, read-out: IC50 of docetaxel, A3 antagonist none
  IC50: 0.68 ng/mL (≈ 0.842 nM)
[4]; [9]
  IC50: 0.37 ± 0.31 ng/mL (≈ 0.458 nM)
[5]; Homo sapiens, SKMES, docetaxel 0.00001-0.005 μg/ml, alone, read-out: IC50 of docetaxel, A3 antagonist none
  IC50: 0.47 ng/mL (≈ 0.582 nM)
[5]; [10]
  IC50: 0.84 ± 0.37 ng/mL (≈ 1.04 nM)
[7]
  acute hypersensitivity reaction, % of patients: 13%
  severe hypersensitivity reaction, % of patients: 1.2%
[6]; [11]
  IC50: 0.2 ± 0.07 ng/mL (≈ 0.248 nM)

## COc1cccc2c1C(=O)c1c(O)c3c(c(O)c1C2=O)C[C@@](O)(C(=O)CO)C[C@@H]3O[C@H]1C[C@H](N)[C@H](O)[C@H](C)O1 [doxorubicin, reference compound]
[3]; Homo sapiens, HT29, doxorubicin 0.0002-0.1 μg/ml, alone, read-out: IC50 of doxorubicin, A3 antagonist none
  IC50: 460 ng/mL (≈ 846 nM)
[3]; [12]
  IC50: 211 ng/mL (≈ 388 nM)
[3]
  fold HT29 more refractory than A375: approximately 30 fold
[6]; [13]
  IC50: 6.4 ng/mL (≈ 11.8 nM)

## CCCn1cc2c(nc(NC(=O)Nc3ccccc3)n3nc(-c4ccco4)nc23)n1 [drawing 9]
[1]; 10 μM
  % of Rh123 negative cells: 0.8 ± 0.2%

## CCCn1cc2c(nc(NC(=O)Nc3ccccc3)n3nc(-c4ccco4)nc23)n1 [drawing 10]
[1]; 10 μM
  % of Rh123 negative cells: 1.0 ± 0.2%

## Cc1ccc(NC(=O)Nc2nc3nn(C)cc3c3nc(-c4ccco4)nn23)cc1 [drawing 11]
[1]; 10 μM
  % of Rh123 negative cells: 22.0 ± 1.0%

## Nc1nc2ccc(Cl)cc2c2nc(-c3ccco3)nn12 [drawing 12, reference compound]
[1]; 70 μM
  % of Rh123 negative cells: 87.1 ± 1.0%

## Nc1nc(NCCc2ccc(O)cc2)nc2nc(-c3ccco3)nn12 [drawing 13, reference compound]
[1]; 70 μM
  % of Rh123 negative cells: 93.0 ± 1.1%

## CCc1c2c(nc3ccc(OC(=O)N4CCC(N5CCCCC5)CC4)cc13)-c1cc3c(c(=O)n1C2)COC(=O)[C@]3(O)CC [irinotecan HCL, reference compound]
[3]; [8]
  IC50: 1050 ± 70 ng/mL
[3]; Homo sapiens, HT29, irinotecan HCl 0.04-20 μg/ml, alone, read-out: IC50 of irinotecan HCl, A3 antagonist none
  IC50: 960 ng/mL
[4]; [9]
  IC50: 1120 ± 290 ng/mL
[5]; Homo sapiens, SKMES, irinotecan HCL 0.04-20 μg/ml, alone, read-out: IC50 of irinotecan HCL, A3 antagonist none
  IC50: 1170 ng/mL
[5]; [10]
  IC50: 1230 ± 360 ng/mL
[6]; [11]
  IC50: 880 ± 190 ng/mL

## O=C1c2c(O)ccc(O)c2C(=O)c2c(NCCNCCO)ccc(NCCNCCO)c21 [mitoxantrone, reference compound]
[3]; [12]
  IC50: 100 ng/mL (≈ 225 nM)
[3]
  fold HT29 more refractory than A375: approximately 30 fold
[6]; [13]
  IC50: 3.2 ng/mL (≈ 7.2 nM)

## CC[C@]1(O)C[C@@H]2CN(CCc3c([nH]c4ccccc34)[C@@](C(=O)OC)(c3cc4c(cc3OC)N(C)[C@H]3[C@@](O)(C(=O)OC)[C@H](OC(C)=O)[C@]5(CC)C=CCN6CC[C@]43[C@@H]65)C2)C1 [vinblastine, reference compound]
[3]; [8]
  IC50: 1.9 ± 0.4 ng/mL (≈ 2.34 nM)
[4]; [9]
  IC50: 1.8 ± 0.8 ng/mL (≈ 2.22 nM)
[5]; Homo sapiens, SKMES, vinblastine 0.00001-0.005 μg/ml, alone, read-out: IC50 of vinblastine, A3 antagonist none
  IC50: 1.5 ng/mL (≈ 1.85 nM)
[5]; [10]
  IC50: 1.9 ± 0.9 ng/mL (≈ 2.34 nM)
[6]; [11]
  IC50: 1.6 ng/mL (≈ 1.97 nM)

Source: patent US20040067932A1 (priority 2002, published 2004)
